The values below come from publication PMC11788587, “Validating Low‐Dose Iohexol as a Marker for Glomerular Filtration Rate by In Vitro and In Vivo Studies” (Clinical and Translational Science, 2025).

The series addresses T1, hOATP1B3 (Homo sapiens, UniProt Q9NPD5).
T1 construct: expressed in transfected cells; host or cells: 293 cells (control: empty vector)
T1 sequence (Q9NPD5 1-702): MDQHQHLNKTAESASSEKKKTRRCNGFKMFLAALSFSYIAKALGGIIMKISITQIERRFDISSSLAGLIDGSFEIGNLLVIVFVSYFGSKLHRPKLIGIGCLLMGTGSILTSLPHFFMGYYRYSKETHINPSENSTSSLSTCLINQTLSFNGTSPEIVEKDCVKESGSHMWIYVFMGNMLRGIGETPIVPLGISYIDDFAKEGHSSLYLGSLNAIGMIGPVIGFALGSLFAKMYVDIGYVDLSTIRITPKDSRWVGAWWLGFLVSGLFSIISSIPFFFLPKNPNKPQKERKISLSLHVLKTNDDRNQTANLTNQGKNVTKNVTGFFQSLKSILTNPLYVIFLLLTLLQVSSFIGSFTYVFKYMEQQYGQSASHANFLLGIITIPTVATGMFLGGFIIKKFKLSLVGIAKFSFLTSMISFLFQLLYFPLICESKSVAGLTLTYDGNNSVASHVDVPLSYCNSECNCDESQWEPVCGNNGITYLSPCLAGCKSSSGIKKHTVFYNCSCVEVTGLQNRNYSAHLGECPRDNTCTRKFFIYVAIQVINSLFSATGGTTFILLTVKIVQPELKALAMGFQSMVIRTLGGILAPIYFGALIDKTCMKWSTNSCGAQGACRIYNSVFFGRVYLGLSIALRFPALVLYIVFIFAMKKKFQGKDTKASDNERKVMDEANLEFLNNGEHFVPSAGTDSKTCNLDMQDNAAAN
The experiment in a line: Inhibition of hOATP1B3-mediated 3H-BSP uptake, stably transfected 293 cells. The format is cell-based. To be noted: substrate 0.02 μM 3H-BSP, median (95% CI). The source says: We characterized the inhibitory potential of iohexol on major drug transporters recommended by regulatory agencies, which were previously assessed in a clinical transporter phenotyping cocktail study. These transporters include hOAT1, hOAT3, hOCT1, hOCT2, hMATE1, hMATE2K, human organic anion transporter polypeptides (hOATP)1B1, hOATP1B3, and human multidrug resistance protein (hMDR)1. Additionally, we investigated whether iohexol is a substrate for any of the renal transporters among these, including hOAT1/3, hOCT1/2, and hMATE1/2K. Cell‐based uptake assays were used to assess the activities of hOAT1/3, hOCT1/2, hMATE1/2K, and hOATP1B1/1B3. Inside‐out membrane vesicle uptake assays were used to evaluate the activity of hMDR1.
To determine the maximal inhibitory potential of iohexol, intracellular accumulation of a standard substrate was measured with and without the clinically relevant highest concentrations of iohexol. Control inhibitors were tested in each experiment.
In all subsequent in vitro studies, control experiments were conducted to validate the results. […] Each condition, including cells or vesicles with the transporter and their respective controls, was analyzed in at least three replicates. […]
Uptake assays were carried out with stably transfected 293 cells expressing hOATP1B1 or hOATP1B3, as well as cells containing an empty vector, using the method described by Hsin CH, et al..^1 For the inhibition assays, cells were incubated with the radiolabeled standard substrates specific to each transporter: 0.01 μM ^3H-estrone sulfate for hOATP1B1, and 0.02 μM ^3H-bromosulphophthalein (BSP) for hOATP1B3. […] The accumulation of radio-labelled probe substrates (^3H) in the cell lysate is determined using a Tri-Carb 2810 liquid scintillation counter (PerkinElmer, Waltham, MA, USA) as described previously.^1 Cellular protein amount was determined in parallel from 6 paired wells per cell line and experimental day, using the Bradford method.^2 The 1X lysis buffer (5X lysis buffer from Promega, diluted 1+4 [v/v] in ddH2O) was used as the lysis buffer. […]

For the molecule `CC(=O)N(CC(O)CO)c1c(I)c(C(=O)NCC(O)CO)c(I)c(C(=O)NCC(O)CO)c1I` (stereo not drawn) [iohexol], the “Inhibitory effect (% reduction of specific activity)” value (20 mM iohexol) is listed as “no notable inhibitory effects”. In addition, where the note is “human, stably transfected 293 cells expressing hOATP1B3, probe 3H-bromosulphophthalein (BSP), 2 mM iohexol, read-out: Inhibitory effect (% reduction of specific activity)”, the inhibition at 7 min, 2 mM was -2.5%. For the same molecule, where the note is “human, stably transfected 293 cells expressing hOATP1B3, probe 3H-bromosulphophthalein (BSP), 20 mM iohexol, read-out: Inhibitory effect (% reduction of specific activity)”, the inhibition at 7 min, 20 mM is -21%.
